Assay results from ChEMBL document CHEMBL1136529, “Synthesis and SAR of cis-1-benzoyl-1,2,3,4-tetrahydroquinoline ligands for control of gene expression in ecdysone responsive systems” (Bioorg Med Chem Lett, 2003).

Key:
Format in all cases: functional
Ecdysone receptor = molecular target: T1, Ecdysone receptor (Aedes aegypti, UniProt P49880); assay: Effective concentration for ecdysone-dependent transactivation in mammalian cell line expressing Aedes aegypti ecdysone receptor
T1 sequence (P49880 whole entry): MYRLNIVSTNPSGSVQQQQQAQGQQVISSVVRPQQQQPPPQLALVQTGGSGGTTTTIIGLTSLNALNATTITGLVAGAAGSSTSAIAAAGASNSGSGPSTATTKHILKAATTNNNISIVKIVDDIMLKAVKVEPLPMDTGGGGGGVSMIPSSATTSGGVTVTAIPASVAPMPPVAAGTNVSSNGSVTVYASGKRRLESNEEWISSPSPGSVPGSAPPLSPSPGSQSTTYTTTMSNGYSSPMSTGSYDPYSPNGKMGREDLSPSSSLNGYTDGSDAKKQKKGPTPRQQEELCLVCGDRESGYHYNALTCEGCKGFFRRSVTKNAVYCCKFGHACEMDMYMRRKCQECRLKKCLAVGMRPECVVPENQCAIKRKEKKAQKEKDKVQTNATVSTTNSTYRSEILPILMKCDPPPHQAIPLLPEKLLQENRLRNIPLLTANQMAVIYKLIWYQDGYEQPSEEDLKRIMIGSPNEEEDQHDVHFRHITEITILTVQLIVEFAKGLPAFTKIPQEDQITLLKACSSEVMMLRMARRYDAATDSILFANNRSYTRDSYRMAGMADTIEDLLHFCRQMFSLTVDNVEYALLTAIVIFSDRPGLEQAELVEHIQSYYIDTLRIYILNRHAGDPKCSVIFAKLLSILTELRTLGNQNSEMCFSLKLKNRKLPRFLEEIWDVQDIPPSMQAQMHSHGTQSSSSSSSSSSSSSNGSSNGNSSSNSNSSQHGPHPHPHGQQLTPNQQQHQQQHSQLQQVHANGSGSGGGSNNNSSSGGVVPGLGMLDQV

[1] = molecular target: T2, Ecdysone receptor (Aedes aegypti) (UniProt P49880); assay: Fold induction of ecdysone-dependent transactivation in mammalian cell line expressing Aedes aegypti ecdysone receptor at 33 uM
T2 sequence (whole entry): T1 sequence (P49880 whole entry)

[2] = molecular target: T2, Ecdysone receptor (Aedes aegypti); assay: Ratio of maximal ecdysone-dependent transactivation in cell line expressing Aedes aegypti ecdysone receptor compared to cpd2

SMILES	EC50 (Ecdysone receptor) [µM]	Fold induction [1]	Rel Max FI [2]
Cc1ccc(N[C@H]2C[C@@H](C)N(C(=O)c3ccc(Cl)cc3)c3ccc(C)cc32)cc1	2.15	43	0.39
C[C@@H]1C[C@H](Nc2ccc(F)cc2)c2cc(F)ccc2N1C(=O)c1ccccc1	1.73	283	0.76
C[C@@H]1C[C@H](Nc2ccc(F)cc2)c2cc(F)ccc2N1C(=O)c1ccccc1F	3	78	0.28
COc1ccccc1C(=O)N1c2ccc(C)cc2[C@@H](Nc2ccc(C)cc2)C[C@H]1C		0	
Cc1ccc(N[C@H]2C[C@@H](C)N(C(=O)c3ccccc3F)c3ccc(C)cc32)cc1	> 33.3	5	0.01
Cc1ccc(N[C@H]2C[C@@H](C)N(C(=O)c3cccc(F)c3)c3ccc(C)cc32)cc1	3	102	0.27
Cc1cccc(C(=O)N2c3ccc(F)cc3[C@@H](Nc3ccc(F)cc3)C[C@H]2C)c1	1.36	686	0.55
Cc1ccccc1C(=O)N1c2ccc(F)cc2[C@@H](Nc2ccc(F)cc2)C[C@H]1C	3.19	158	0.5
COc1ccc(C(=O)N2c3ccccc3[C@@H](Nc3ccccc3)C[C@H]2C)cc1	1.43	64	0.44
COc1cccc(C(=O)N2c3ccc(F)cc3[C@@H](Nc3ccc(F)cc3)C[C@H]2C)c1	1.48	119	0.98
Cc1ccc(N[C@H]2C[C@@H](C)N(C(=O)c3ccccc3C(F)(F)F)c3ccc(C)cc32)cc1	> 33.3	12	0.04
Cc1ccc(N[C@H]2C[C@@H](C)N(C(=O)c3ccc(C)cc3)c3ccc(C)cc32)cc1	5	121	0.26
Cc1ccc(N[C@H]2C[C@@H](C)N(C(=O)c3ccccc3)c3ccc(C)cc32)cc1	5.4	35	0.19
COc1cccc(C(=O)N2c3ccc(C)cc3[C@@H](Nc3ccc(C)cc3)C[C@H]2C)c1	> 33.3	3	0.01
Cc1ccc(N[C@H]2C[C@@H](C)N(C(=O)c3ccccc3C)c3ccc(C)cc32)cc1	8.71	19	0.04
COc1ccc(C(=O)N2c3ccc(C)cc3[C@@H](Nc3ccc(C)cc3)C[C@H]2C)cc1	5.32	57	0.09
C[C@@H]1C[C@H](Nc2ccc(F)cc2)c2cc(F)ccc2N1C(=O)c1ccccc1C(F)(F)F	11	64	0.32
CCc1c(OC)cccc1C(=O)NN(C(=O)c1cc(C)cc(C)c1)C(C)(C)C	0.44		
Cc1ccc(N[C@H]2C[C@@H](C)N(C(=O)c3cccc(C)c3)c3ccc(C)cc32)cc1	> 33.3	6	0.01
COc1ccccc1C(=O)N1c2ccc(F)cc2[C@@H](Nc2ccc(F)cc2)C[C@H]1C	> 33.3	4	0.01
Cc1ccc(N[C@H]2C[C@@H](C)N(C(=O)c3ccc(C(F)(F)F)cc3)c3ccc(C)cc32)cc1	4.41	69	0.23
C[C@@H]1C[C@H](Nc2ccccc2)c2ccccc2N1C(=O)c1cccc(C(F)(F)F)c1	1.21	28	0.42
C[C@@H]1C[C@H](Nc2ccccc2)c2ccccc2N1C(=O)c1ccccc1C(F)(F)F		1	
Cc1ccc(N[C@H]2C[C@@H](C)N(C(=O)c3cccc(C(F)(F)F)c3)c3ccc(C)cc32)cc1	1.84	12	0.47

The next lines start with the values.

EC50 (Ecdysone receptor) [µM]	Fold induction [1]	Rel Max FI [2]	SMILES
0.64	212	0.7	C[C@@H]1C[C@H](Nc2ccc(F)cc2)c2cc(F)ccc2N1C(=O)c1ccc(Cl)cc1
0.99	204	0.57	C[C@@H]1C[C@H](Nc2ccc(F)cc2)c2cc(F)ccc2N1C(=O)c1cccc(F)c1
0.75	75	0.44	C[C@@H]1C[C@H](Nc2ccccc2)c2ccccc2N1C(=O)c1cccc(F)c1
0.92	230	0.63	C[C@@H]1C[C@H](Nc2ccc(F)cc2)c2cc(F)ccc2N1C(=O)c1ccc(C(F)(F)F)cc1
1.18	89	0.64	C[C@@H]1C[C@H](Nc2ccccc2)c2ccccc2N1C(=O)c1ccc(C(F)(F)F)cc1
1	89	0.93	C[C@@H]1C[C@H](Nc2ccc(F)cc2)c2cc(F)ccc2N1C(=O)c1cccc(C(F)(F)F)c1
0.99	64	0.42	Cc1ccc(C(=O)N2c3ccccc3[C@@H](Nc3ccccc3)C[C@H]2C)cc1
1.12	20	0.07	C[C@@H]1C[C@H](Nc2ccccc2)c2ccccc2N1C(=O)c1ccccc1
0.7	9	0.15	COc1cccc(C(=O)N2c3ccccc3[C@@H](Nc3ccccc3)C[C@H]2C)c1
0.87	91	0.67	Cc1ccc(C(=O)N2c3ccc(F)cc3[C@@H](Nc3ccc(F)cc3)C[C@H]2C)cc1
1.14	110	0.87	COc1ccc(C(=O)N2c3ccc(F)cc3[C@@H](Nc3ccc(F)cc3)C[C@H]2C)cc1
0.98	130	0.43	C[C@@H]1C[C@H](Nc2ccccc2)c2ccccc2N1C(=O)c1ccc(Cl)cc1
